Consider 1 compound from patent publication US20100143897A1, “Materials and Methods for Assaying for Glyoxylate” (University of South Florida, priority 2005, published 2010).

In this experiment the test system is peptidylglycine α-amidating monooxygenase (PAM). The experiment in a line: PAM treatment of hippurate: benzamide by HPLC, glyoxylate by malate synthase/malate dehydrogenase/MTS/PMS system. Format: biochemical. The note with it: PAM added to hippurate. As to the method:
Spectrophotometric enzyme-linked assays for glyoxylate were initiated by the addition of malate synthase and malate dehydrogenase. […] The absorbance at 490 nm was measured after one hour incubation at 37° C. in the dark. The small amount of MTS reduced for the zero glyoxylate control was subtracted from that obtained in the presence of glyoxylate. Hippurate (N-benzoylglycine, C6H5—CO—NH—CH2—COO^−) is a PAM substrate that is oxidatively converted to benzamide and glyoxylate. […] At 10 min intervals over a period of 110 minutes, 45 μl aliquots were removed and added to 10 μl of 6% (v/v) trifluoroacetic acid to terminate the reaction. Percent conversion of hippurate to benzamide was determined at each time interval by reverse-phase HPLC. […] Following ascorbate removal the addition of 100 ul enzyme couple and PMS/MTS brought the assay to a final volume of 1 ml which contained 100 mM TEA-HCl pH 7.8, 10 mM MgCl2, 400 μM acetyl-CoA, 500 μM NAD^+, 6 U/ml malate synthase, 6 U/ml malate dehydrogenase, and 12 units ascorbate oxidase. […] A control for this experiment was performed at each time point, and contained no hippurate.

Each structure is given as a SMILES string.

Regarding `O=C(O)CNC(=O)c1ccccc1` [Hippurate, N-benzoylglycine], the “Benzamide Produced” value is given as 0.58 mM (Time 40); 0.70 mM (Time 50); 0.80 mM (Time 60); 0.90 mM (Time 70); 0.98 mM (Time 80); 1.1 mM (Time 90). The “Benzamide Produced” value is listed as 1.2 mM (Time 100) and 1.3 mM (Time 110). Besides, the “Glyoxylate Produced” value stood at 0.69 mM (Time 40); 0.67 mM (Time 50); 0.71 mM (Time 60); 0.75 mM (Time 70); 0.77 mM (Time 80); 1.3 mM (Time 90). The “Glyoxylate Produced” value runs as follows: (Time 100) 1.3 mM; (Time 110) 1.3 mM.
